The target of the test is T1, 5-HT1A receptor (Rattus norvegicus, UniProt P19327).
T1 construct: a rat brain was homogenized in Tris buffer and centrifuged; from tissue; host or cells: rat brain membrane preparation
T1 sequence (P19327 1-422): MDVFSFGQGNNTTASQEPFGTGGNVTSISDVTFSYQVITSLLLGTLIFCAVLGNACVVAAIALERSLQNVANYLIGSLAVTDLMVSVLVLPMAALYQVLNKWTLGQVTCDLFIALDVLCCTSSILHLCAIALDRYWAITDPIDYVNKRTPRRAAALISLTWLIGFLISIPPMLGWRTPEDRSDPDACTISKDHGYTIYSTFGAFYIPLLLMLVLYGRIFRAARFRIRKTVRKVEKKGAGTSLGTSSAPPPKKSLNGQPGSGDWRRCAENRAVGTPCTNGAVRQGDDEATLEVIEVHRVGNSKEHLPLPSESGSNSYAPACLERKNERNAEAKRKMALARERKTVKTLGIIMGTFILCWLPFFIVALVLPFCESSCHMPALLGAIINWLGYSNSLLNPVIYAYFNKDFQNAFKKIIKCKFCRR
Kind of test: binding assay using [3H]8-OH-DPAT, rat brain membrane preparation.

These results are taken from patent US5219855A, “Anxiolytic drug” (Mitsubishi Kasei Corporation, priority 1988, dated 1993).

As a reminder, the Ki is the dissociation constant of the complex between target and ligand, obtained from inhibition or displacement. A low value points to tighter binding.

Structures can show the parent of a compound that is named as a salt.

Experimental: To say more exactly, a rat brain was homogenized in Tris buffer and centrifuged. The resultant sediment was rehomogenized using Tris buffer and incubated at 37° C. for 10 minutes, followed by centrifugation. The resulting deposit was homogenized in Tris buffer containing pargyline, calcium chloride and ascorbic acid and subjected to binding assay (membrane preparation).
The assay was carried out by combining the membrane preparation with [3H]8-OH-DPAT and the test compound and then incubating at 37° C. for 10 minutes.
Subsequently, the mixture was immediately filtered through a Whatman GF/B filter and the radio-activity remaining on the filter was measured by liquid chromatography.
The binding capacity of the test compound to 5-HT1A receptor was expressed as Ki value calculated by the formula: [formula] wherein [L] denotes the concentration of [3H]8-OH-DPAT, kd represents the dissociation constant, and IC50 represents the concentration of the test compound required to produce a 50% inhibition of [3H]8-OH-DPAT binding.

`FC(F)(F)c1cccc(N2CCN(CCCOc3ccc4c(c3)OCO4)CC2)c1` [No. 13]: the Ki turned out to be 0.008 µM.

Turning to `O=C(CCCCN1CCN(c2ccccc2)CC1)c1ccc2c(c1)OCO2` [No. 20], the Ki was found to be 0.0101 µM. In turn, `c1ccc(N2CCN(CCCOc3ccc4c(c3)OCO4)CC2)cc1` [No. 1] came in with a Ki of 0.0047 µM. For the compound `c1ccc(N2CCN(CCCOc3ccc4c(c3)OCO4)CC2)nc1` [No. 2], the Ki turned out to be 0.0024 µM. In turn, `Fc1ccc(N2CCN(CCCCOc3ccc4c(c3)OCO4)CC2)cc1` [No. 5] came in with a Ki of 0.0332 µM.

For the compound `c1ccc(N2CCN(CCCCOc3ccc4c(c3)OCCO4)CC2)cc1` [No. 19], the affinity corresponds to a Ki of 0.016 µM. In turn, `c1ccc(N2CCN(CCCOc3ccc4c(c3)OCCO4)CC2)cc1` [No. 15] gave a Ki of 0.0057 µM. The figure for `FC(F)(F)c1cccc(N2CCN(CCCCOc3ccc4c(c3)OCO4)CC2)c1` [No. 6] is 0.0559 µM; for `OC(CCCN1CCN(c2ccccc2)CC1)c1ccc2c(c1)OCO2` (stereo not shown) [No. 18] it is 0.008 µM; for `[O-][S+](CCCN1CCN(c2ccccc2)CC1)c1ccc2c(c1)OCCCO2` (stereo not shown) [No. 22] it is 0.0254 µM. The same measure for `O=C1c2ccccc2S(=O)(=O)N1CCCCN1CCN(c2ncccn2)CC1` [Ipsapirone, 2-(4-(4-(2-pyrimidinyl)-1-piperazinyl)butyl)-1,2-benzisothiazol-3-(2H)one-1,1-dioxydehydrochloride, reference compound]: 0.0022 µM; for `c1ccc(N2CCN(CCCSc3ccc4c(c3)OCCO4)CC2)cc1` [No. 21]: 0.0712 µM; for `O=C(CCN1CCN(c2ccccc2)CC1)Nc1ccc2c(c1)OCO2` [No. 10]: 0.0254 µM.

The compound `COc1ccc(OCCCN2CCN(c3ccccc3OC)CC2)cc1OC` [No. 8] registered a Ki of 0.0143 µM. `c1cnc(N2CCN(CCCOc3ccc4c(c3)OCO4)CC2)nc1` [No. 3] had a Ki of 0.0101 µM. The same measure for `c1ccc(N2CCN(CCOc3ccc4c(c3)OCO4)CC2)cc1` [No. 16]: 0.127 µM; for `O=C(CCCN1CCN(c2ccccc2)CC1)c1ccc2c(c1)OCO2` [No. 17]: 0.0057 µM; for `c1ccc(N2CCN(CCCNc3ccc4c(c3)OCO4)CC2)cc1` [No. 11]: 0.018 µM. On to `Cc1ccccc1N1CCN(CCCOc2ccc3c(c2)OCO3)CC1` [No. 14], for which the affinity corresponds to a Ki of 0.101 µM. The figure for `COc1cc(OCCCN2CCN(c3ccccc3)CC2)cc(OC)c1OC` [No. 7] is 0.0057 µM. The same measure for `Fc1ccc(N2CCN(CCCOc3ccc4c(c3)OCO4)CC2)cc1` [No. 12]: 0.016 µM. The figure for `c1ccc(N2CCN(CCCCOc3ccc4c(c3)OCO4)CC2)cc1` [No. 4] is 0.0101 µM.
